Series [1] in a line: Relaxivity measurement (T1 and T2 relaxation, MRI Contrast Agent Analyzer). The format is physicochemical. The conditions noted are these: 0.5 T, 32° C., pH=7.4. Here is the method:
The method for measuring the relaxivity comprises the following steps: preparing contrast agent solutions in a gradient concentration (0.054, 0.109, 0.224, 0.451, 0.906 mM, in Hepes buffer, pH=7.4), and measuring the contrast agent samples at different concentrations by Niumag PQ001 MRI Contrast Agent Analyzer (0.5±0.08T, main frequency of instrument: 21.3 MHz; at 32° C.) to respectively obtain their T1 and T2 relaxation time, and then performing a linear fitting between the relaxation rate, Ri (Ri=1/Ti, i=1, 2) and the contrast agent concentrations to obtain a slope, i.e., relaxivity (ri, i=1, 2). Relaxivity reflects the ability of magnetic resonance imaging contrast agent to alter the relaxation time of water proton and is an important parameter to evaluate the quality of contrast agent. Relaxivity (ri, i=1, 2) is defined as the alteration in the relaxation rate of water proton (1/Ti, i=1, 2) by unit concentration of MRI Contrast agent (mmol/L).

A short description of series [2]: Pharmacokinetics study, Mn^2+ in whole blood by ICP-MS. In kind it is in vivo. The conditions noted are these: SD rats, caudal vein 0.1 mmol/kg, non-compartment model. Here is the method:
Totally 8 SD rats, 3 female rats and 5 male rats, weighed 220 to 240 g, were anesthetized by intraperitoneal injection of 3% pentobarbital sodium (50 mg/kg) and fixed in supine position, followed by removing neck hair and disinfecting routinely for later use.
Catheterization of left carotid artery comprises steps as follows: making a 20 mm longitudinal incision from the 3 mm left side of the median cervical line (the line from the sternum to the mandible) and 7 mm above the sternum; dissecting the skin to expose the subcutaneous tissue, and performing a blunt layer-by-layer dissection until the carotid artery was visualized; separating […] from its accompanied veins by blunt dissection; ligating distal portion and proximal portion of the heart respectively, wherein the distance between the nodes was 2.5-3.5 cm; inserting an indwelling needle into the artery near the node at the distal portion of the heart and fixing with a hemostatic clip, taking the needle out and releasing the node at the proximal portion of the heart; and injecting heparin lithium (150 μg/kg) to perform systemic heparinization in body.
Caudal vein was rapidly injected (<5s) with KBR0826 solution (0.05 mmol/mL) at a dose of 0.1 mmol/kg. Before injection and within 1 min, 2 min, 3 min, 5 min, 8 min, 13 min, 20 min, 30 min, and 50 min after the injection, 0.1 mL of carotid blood was respectively collected and placed in a 0.5 mL EP tube and stored at −20° C.
ICP-MS was configured with a power of 1150 W, a flow rate of argon for atomization gas of 0.95 L·min^−1, a flow rate of argon for auxiliary gas of 1.2 L·min^−1, a flow rate of argon for plasma gas of 18 L·min^−1, pump speed of 20 r·min^−1, an analytic mode being standard mode, repetition sampling in triple.
A set of standard solution was prepared with standard reagents (PerkinElmer, […] (1000 ppb): Ag, Al, As, Cs, Cu, Sr, Se, Mn, etc.) at different concentrations, i.e., at 1.0 ppb, 10 ppb, 50 ppb, 100 ppb, 200 ppb and 1000 ppb, to establish a standard curve (as shown in FIG. 3), and R^2 for the linear equation was >0.9999.
20 μL of sample (whole blood) was collected and diluted to 6 to 10 mL with 1% HNO3, such that the concentration of Mn^2+ ranged from 1 ppb to 100 ppb; sample IDs were generated and then the samples were measured, and Mn^2+ concentrations of the sample solutions were calculated according to the response intensity and the standard curve.
PKSolver 2.0 was used for calculating relevant pharmacokinetic parameters.

“And” between values parts separate entries of the source, which are not always exact repeats. Equal values may be shown once.

As usually defined, the Vss is a proportionality between amount in the body and measured concentration, not a real space. Low values mean confinement near the circulation, high ones extensive tissue distribution. In the case of `O=C([O-])CN(CP(=O)([O-])O)C1CCCCC1N(CC(=O)[O-])CP(=O)([O-])O.[Mn+2].[Na+].[Na+]` (stereo not drawn) [KBR0826], in series [1], the “relaxivity r1” value was found to be 3.12 mmol⁻¹ s⁻¹. For the same compound, in series [2], the AUC0-inf amounted to 734.55 ± 333.06 mg·min/L, the AUC0-t was 712.59 ± 325.70 mg·min/L, the AUMC0-inf is given as 8419.63 ± 9547.34 mg/L · min^2 and the C0 is 616.61 ± 568.85 µg/mL. In addition, in series [2], the MRT0-inf is given as 11.26 ± 8.93 min; the V turned out to be 0.38 ± 0.45 L/kg; the Vss came out at 0.17 ± 0.30 L/kg; the “t1/2 (plasma half-life)” value was 23 min and 22.87 ± 13.04 min.

The record behind these values is patent publication US20230098403A1, “MAGNETIC RESONANCE IMAGING CONTRAST AGENT, PREPARATION METHOD AND USE THEREOF” (GUANGZHOU PINGLAN MEDICAL TECHNOLOGY CO., LTD., priority 2020, published 2023).
